The results in this text go back to US11639343B2, “Compounds targeting and degrading BCR-ABL protein and its antitumor application” (ShanghaiTech University, priority 2019, dated 2023).

Structures are written as SMILES. Where two headings read alike, the source gives them in different places.

The test system of one experiment is K562 (BCR-ABL+) cells. Briefly: CCK-8 proliferation inhibition, K562 cells.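 Further: Ten-point threefold dilution series starting at 10 µM, absorbance at 450 nm after 2 h with CCK-8, DMSO as negative control.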 Type of experiment: cell-based, human. The note with it: read-out: Proliferative inhibitory activity (IC50, nM) K562 (BCR-ABL+).
A further experiment deals with U937 (BCR-ABL-) cells. Briefly: CCK-8 proliferation inhibition, U937 cells.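 Further: Ten-point threefold dilution series, absorbance at 450 nm after 2 h with CCK-8 reagent, DMSO as negative control.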 The class given is cell-based, human. The note with it: read-out: Proliferative inhibitory activity (IC50, nM) U937 (BCR-ABL-).
A further experiment has as its system HEK293 (BCR-ABL-) cells. Briefly: CCK-8 proliferation inhibition, HEK293 cells.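 Further: Ten-point threefold dilution series starting at 10 µM, CCK-8 absorbance at 450 nm read after 2 h reagent incubation, DMSO-treated cells as negative control.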 The note with it: read-out: Proliferative inhibitory activity (IC50, nM) HEK293 (BCR-ABL-).
[1] abbreviates: Homo sapiens, K562, 48 h, CCK-8, 48 hours of drug treatment.
[2] abbreviates: Homo sapiens, U-937, CCK-8, 48 hours of drug treatment, highest concentration 10 μM.
Where [3] appears, read: CCK-8, 48 hours of drug treatment.
[4] abbreviates: CCK-8, 48 hours of drug treatment, highest concentration 10 μM.

`Cc1nc(Nc2ncc(C(=O)Nc3c(C)cccc3Cl)s2)cc(N2CCN(C(=O)CCCCCOCCOCCOCCCCCC(=O)N[C@H](C(=O)N3C[C@H](O)C[C@H]3C(=O)NCc3ccc(-c4scnc4C)cc3)C(C)(C)C)CC2)n1` [SIAIS180147, N-(2-chloro-6-methylphenyl)-2-((6-(4-((S)-3-((2S,4R)-4-hydroxy-2-((4-(4-methylthiazol-5-yl)benzyl)carbamoyl)pyrrolidine-1-carbonyl)-2,2-dimethyl-5-oxo-11,14,17-trioxa-4-azatricosan-23-oyl)piperazin-1-yl)-2-methylpyrimidin-4-yl)amino)thiazole-5-carboxamide]: the IC50 with K562 (BCR-ABL+) cells (setting [1]) is 14.9 nM; in the experiment on U937 (BCR-ABL-) cells (setting [2]), above 10000 nM; in the experiment on HEK293 (BCR-ABL-) cells (Homo sapiens, HEK293, 48 h), above 10000 nM.
Turning to `Cc1nc(Nc2ncc(C(=O)Nc3c(C)cccc3Cl)s2)cc(N2CCN(C(=O)CCCc3cn(CCCC(=O)N[C@H](C(=O)N4C[C@H](O)C[C@H]4C(=O)NCc4ccc(-c5scnc5C)cc4)C(C)(C)C)nn3)CC2)n1` [SIAIS164134, N-(2-chloro-6-methylphenyl)-2-((6-(4-(4-(1-(4-(((S)-1-((2S,4R)-4-hydroxy-2-((4-(4-methylthiazol-5-yl)benzyl)carbamoyl)pyrrolidin-1-yl)-3,3-dimethyl-1-oxobutan-2-yl)amino)-4-oxobutyl)-1H-1,2,3-triazol-4-yl)butanoyl)piperazin-1-yl)-2-methylpyrimidin-4-yl)amino)thiazole-5-carboxamide], the half-inhibitory concentration (IC50) is 12 nM in the experiment with K562 (BCR-ABL+) cells (setting [1]); above 10000 nM in the experiment with U937 (BCR-ABL-) cells (setting [2]); above 10000 nM with HEK293 (BCR-ABL-) cells (Homo sapiens, HEK293, 48 h).
In the case of `Cc1nc(Nc2ncc(C(=O)Nc3c(C)cccc3Cl)s2)cc(N2CCN(C(=O)CCCCNC(=O)CCCCCCCCC(=O)N[C@H](C(=O)N3C[C@H](O)C[C@H]3C(=O)NCc3ccc(-c4scnc4C)cc3)C(C)(C)C)CC2)n1` [SIAIS184032, N1-(5-(4-(6-((5-((2-chloro-6-methylphenyl)carbamoyl)thiazol-2-yl)amino)-2-methylpyrimidin-4-yl)piperazin-1-yl)-5-oxopentyl)-N10-((S)-1-((2S,4R)-4-hydroxy-2-((4-(4-methylthiazol-5-yl)benzyl)carbamoyl)pyrrolidin-1-yl)-3,3-dimethyl-1-oxobutan-2-yl)decanediamide], the 50% inhibitory concentration (IC50) was 72 nM in the experiment on K562 (BCR-ABL+) cells (setting [1]); above 10000 nM with U937 (BCR-ABL-) cells (setting [2]); above 10000 nM in the experiment on HEK293 (BCR-ABL-) cells (Homo sapiens, HEK293, 48 h).
For `Cc1nc(Nc2ncc(C(=O)Nc3c(C)cccc3Cl)s2)cc(N2CCN(C(=O)CCCCCCCCCCCCCCC(=O)N[C@H](C(=O)N3C[C@H](O)C[C@H]3C(=O)NCc3ccc(-c4scnc4C)cc3)C(C)(C)C)CC2)n1` [SIAIS164194, N-(2-chloro-6-methylphenyl)-2-((6-(4-(16-(((S)-1-((2S,4R)-4-hydroxy-2-((4-(4-methylthiazol-5-yl)benzyl)carbamoyl)pyrrolidin-1-yl)-3,3-dimethyl-1-oxobutan-2-yl)amino)-16-oxohexadecanoyl)piperazin-1-yl)-2-methylpyrimidin-4-yl)amino)thiazole-5-carboxamide], the IC50 in the experiment on K562 (BCR-ABL+) cells (setting [1]) was 32.3 nM; with U937 (BCR-ABL-) cells (setting [2]), above 10000 nM; with HEK293 (BCR-ABL-) cells (Homo sapiens, HEK293, 48 h), above 10000 nM.
Take `Cc1nc(Nc2ncc(C(=O)Nc3c(C)cccc3Cl)s2)cc(N2CCN(C(=O)CCOCCOCCOCCOCCOCCC(=O)N[C@H](C(=O)N3C[C@H](O)C[C@H]3C(=O)NCc3ccc(-c4scnc4C)cc3)C(C)(C)C)CC2)n1` [SIAIS151079, N-(2-chloro-6-methylphenyl)-2-((6-(4-((S)-21-((2S,4R)-4-hydroxy-2-((4-(4-methylthiazol-5-yl)benzyl)carbamoyl)pyrrolidine-1-carbonyl)-22,22-dimethyl-19-oxo-4,7,10,13,16-pentaoxa-20-azatricosanoyl)piperazin-1-yl)-2-methylpyrimidin-4-yl)amino)thiazole-5-carboxamide]: the 50% inhibitory concentration (IC50) with K562 (BCR-ABL+) cells (setting [1]) was 1610 nM; with U937 (BCR-ABL-) cells (setting [2]), above 10000 nM; in the experiment with HEK293 (BCR-ABL-) cells (Homo sapiens, HEK293, 48 h), above 10000 nM.
As for `Cc1nc(Nc2ncc(C(=O)Nc3c(C)cccc3Cl)s2)cc(N2CCN(C(=O)COCCOCC(=O)N[C@H](C(=O)N3C[C@H](O)C[C@H]3C(=O)NCc3ccc(-c4scnc4C)cc3)C(C)(C)C)CC2)n1` [SIAIS151076, N-(2-chloro-6-methylphenyl)-2-((6-(4-(2-(2-(2-(((S)-1-((2S,4R)-4-hydroxy-2-((4-(4-methylthiazol-5-yl)benzyl)carbamoyl)pyrrolidin-1-yl)-3,3-dimethyl-1-oxobutan-2-yl)amino)-2-oxoethoxy)ethoxy)acetyl)piperazin-1-yl)-2-methylpyrimidin-4-yl)amino)thiazole-5-carboxamide], the IC50 is 670 nM with K562 (BCR-ABL+) cells (setting [3]), above 10000 nM in the experiment with U937 (BCR-ABL-) cells (setting [4]) and above 10000 nM in the experiment with HEK293 (BCR-ABL-) cells (setting [4]).
Turning to `COc1cc(Nc2c(C#N)cnc3cc(OCCCN4CCN(C)CC4)c(OC)cc23)c(Cl)cc1Cl` [Bosutinib, reference compound], the IC50 with K562 (BCR-ABL+) cells (Homo sapiens, K562, 48 h) is 29.6 nM; with U937 (BCR-ABL-) cells (Homo sapiens, U-937, 48 h) it was above 10000 nM.
On to `Cc1nc(Nc2ncc(C(=O)Nc3c(C)cccc3Cl)s2)cc(N2CCN(C(=O)CCNc3cccc4c3C(=O)N(C3CCC(=O)NC3=O)C4=O)CC2)n1` (centres unmarked) [SIAIS151074, N-(2-chloro-6-methylphenyl)-2-((6-(4-(3-((2-(2,6-dioxopiperidin-3-yl)-1,3-dioxoisoindolin-4-yl)amino)propanoyl)piperazin-1-yl)-2-methylpyrimidin-4-yl)amino)thiazole-5-carboxamide], for which the IC50 was 6.8 nM in the experiment on K562 (BCR-ABL+) cells (setting [1]); above 10000 nM in the experiment with U937 (BCR-ABL-) cells (setting [2]); above 10000 nM in the experiment on HEK293 (BCR-ABL-) cells (Homo sapiens, HEK293, 48 h).
As for `Cc1nc(Nc2ncc(C(=O)Nc3c(C)cccc3Cl)s2)cc(N2CCN(C(=O)COCCOCC(=O)N[C@H](C(=O)N3C[C@H](O)C[C@H]3C(=O)NCc3ccc(-c4scnc4C)cc3)C(C)(C)C)CC2)n1` [SIAIS151080, N-(2-chloro-6-methylphenyl)-2-((6-(4-(2-(2-(2-(((S)-1-((2S,4R)-4-hydroxy-2-((4-(4-methylthiazol-5-yl)benzyl)carbamoyl)pyrrolidin-1-yl)-3,3-dimethyl-1-oxobutan-2-yl)amino)-2-oxoethoxy)ethoxy)acetyl)piperazin-1-yl)-2-methylpyrimidin-4-yl)amino)thiazole-5-carboxamide], the IC50 was 2240 nM in the experiment with K562 (BCR-ABL+) cells (setting [3]); above 10000 nM in the experiment on U937 (BCR-ABL-) cells (setting [2]); above 10000 nM in the experiment with HEK293 (BCR-ABL-) cells (Homo sapiens, HEK293, 48 h).
Turning to `Cc1nc(Nc2ncc(C(=O)Nc3c(C)cccc3Cl)s2)cc(N2CCN(C(=O)CCOCCOCCOCCC(=O)N[C@H](C(=O)N3C[C@H](O)C[C@H]3C(=O)NCc3ccc(-c4scnc4C)cc3)C(C)(C)C)CC2)n1` [SIAIS151077, N-(2-chloro-6-methylphenyl)-2-((6-(4-((S)-15-((2S,4R)-4-hydroxy-2-((4-(4-methylthiazol-5-yl)benzyl)carbamoyl)pyrrolidine-1-carbonyl)-16,16-dimethyl-13-oxo-4,7,10-trioxa-14-azaheptadecanoyl)piperazin-1-yl)-2-methylpyrimidin-4-yl)amino)thiazole-5-carboxamide], the half-maximal inhibitory concentration (IC50) was 3430 nM in the experiment with K562 (BCR-ABL+) cells (setting [1]); above 10000 nM in the experiment on U937 (BCR-ABL-) cells (setting [2]); above 10000 nM with HEK293 (BCR-ABL-) cells (Homo sapiens, HEK293, 48 h).
As for `COc1cc(Nc2c(C#N)cnc3cc(OCCCN4CCN(C(=O)CC(=O)Nc5cccc6c5CN(C5CCC(=O)NC5=O)C6=O)CC4)c(OC)cc23)c(Cl)cc1Cl` (centres unmarked) [SIAIS164104, 3-(4-(3-((3-cyano-4-((2,4-dichloro-5-methoxyphenyl)amino)-6-methoxyquinolin-7-yl)oxy)propyl)piperazin-1-yl)-N-(2-(2,6-dioxopiperidin-3-yl)-1-oxoisoindolin-4-yl)-3-oxopropanamide], the IC50 with K562 (BCR-ABL+) cells (setting [1]) was 811 nM; in the experiment with U937 (BCR-ABL-) cells (setting [2]), above 10000 nM; with HEK293 (BCR-ABL-) cells (Homo sapiens, HEK293, 48 h), above 10000 nM.
Take `COc1cc(Nc2c(C#N)cnc3cc(OCCCN4CCN(C(=O)CCCC(=O)Nc5cccc6c5CN(C5CCC(=O)NC5=O)C6=O)CC4)c(OC)cc23)c(Cl)cc1Cl` (centres unmarked) [SIAIS164106, 5-(4-(3-((3-cyano-4-((2,4-dichloro-5-methoxyphenyl)amino)-6-methoxyquinolin-7-yl)oxy)propyl)piperazin-1-yl)-N-(2-(2,6-dioxopiperidin-3-yl)-1-oxoisoindolin-4-yl)-5-oxopentanamide]: the concentration for half-maximal inhibition (IC50) in the experiment on K562 (BCR-ABL+) cells (setting [1]) was 438 nM; in the experiment with U937 (BCR-ABL-) cells (setting [2]), above 10000 nM; in the experiment with HEK293 (BCR-ABL-) cells (Homo sapiens, HEK293, 48 h), above 10000 nM.
On to `Cc1nc(Nc2ncc(C(=O)Nc3c(C)cccc3Cl)s2)cc(N2CCN(C(=O)CCCCCCCCCCCCC(=O)N[C@H](C(=O)N3C[C@H](O)C[C@H]3C(=O)NCc3ccc(-c4scnc4C)cc3)C(C)(C)C)CC2)n1` [SIAIS164193, N-(2-chloro-6-methylphenyl)-2-((6-(4-(14-(((S)-1-((2S,4R)-4-hydroxy-2-((4-(4-methylthiazol-5-yl)benzyl)carbamoyl)pyrrolidin-1-yl)-3,3-dimethyl-1-oxobutan-2-yl)amino)-14-oxotetradecanoyl)piperazin-1-yl)-2-methylpyrimidin-4-yl)amino)thiazole-5-carboxamide], for which the IC50 in the experiment with K562 (BCR-ABL+) cells (setting [1]) was 14.4 nM; in the experiment on U937 (BCR-ABL-) cells (setting [2]), above 10000 nM; with HEK293 (BCR-ABL-) cells (Homo sapiens, HEK293, 48 h), above 10000 nM.

A word on the IC50: it is the concentration at which inhibition is half-maximal.
